Converted amounts (≈) assume the structure as drawn.
Tests used:
[1] = molecular target: T1, SWI/SNF-related matrix-associated actin-dependent regulator of chromatin subfamily A member 4 (Homo sapiens, UniProt P51532); test: Binding affinity to human SMARCA4 (A1448 to S1575 residues) expressed in bacterial expression system by bromoscan assay
[2] = molecular target: T2, Protein polybromo-1 (Homo sapiens, UniProt Q86U86); test: Inhibition of PBRM1 bromodomain 5 (unknown origin) by TR-FRET assay
[3] = molecular target: T1, SWI/SNF-related matrix-associated actin-dependent regulator of chromatin subfamily A member 4
[4] = molecular target: T3, SWI/SNF-related matrix-associated actin-dependent regulator of chromatin subfamily A member 2 (Homo sapiens, UniProt P51531); test: Inhibition of SMARCA2 (unknown origin) by TR-FRET assay
[5] = molecular target: T1, SWI/SNF-related matrix-associated actin-dependent regulator of chromatin subfamily A member 4; test: Binding affinity to His6/FLAG-tagged SMARCA4 (unknown origin) by isothermal titration calorimetric assay
[6] = molecular target: Bromodomain-containing protein 4 (Homo sapiens, UniProt O60885); test: Inhibition of BRD4 bromodomain 1 (unknown origin) by TR-FRET assay
[7] = molecular target: T2, Protein polybromo-1; test: Binding affinity to human PBRM1 bromodomain 2 (S178 to E291 residues) expressed in bacterial expression system by bromoscan assay
[8] = molecular target: T2, Protein polybromo-1; test: Binding affinity to human PBRM1 bromodomain 5 (S645 to D766 residues) expressed in bacterial expression system by bromoscan assay
[9] = molecular target: T3, SWI/SNF-related matrix-associated actin-dependent regulator of chromatin subfamily A member 2; test: Binding affinity to human SMARCA2 (S1337 to Q1486 residues) expressed in bacterial expression system by bromoscan assay
[10] = Lipophilicity, LogD of compound; format: physicochemical; details: octanol/water
[11] = Kinetic solubility of compound; format: physicochemical; details: read-out: Kinetic_solubility
[12] = Fraction unbound in CD-1 mouse at 1 mg/kg, po; format: ADME, organism-based; details: in vivo
[13] = Cmax in CD-1 mouse at 1 mg/kg, po; format: ADME, organism-based; set-up: dose 1 mg/kg, route po; details: in vivo
[14] = Unbound volume of distribution at steady state in CD-1 mouse at 0.5 mg/kg, iv; format: ADME, organism-based; details: in vivo
[15] = Half life in CD-1 mouse at 0.5 mg/kg, iv; format: ADME, organism-based; details: in vivo
[16] = Clearance in CD-1 mouse at 0.5 mg/kg, iv; format: ADME, organism-based; details: in vivo
[17] = molecular target: T4, Cytochrome P450 1A2 (Homo sapiens, UniProt P05177); test: Inhibition of CYP1A2 (unknown origin); format: ADME
T4 sequence (P05177 whole entry): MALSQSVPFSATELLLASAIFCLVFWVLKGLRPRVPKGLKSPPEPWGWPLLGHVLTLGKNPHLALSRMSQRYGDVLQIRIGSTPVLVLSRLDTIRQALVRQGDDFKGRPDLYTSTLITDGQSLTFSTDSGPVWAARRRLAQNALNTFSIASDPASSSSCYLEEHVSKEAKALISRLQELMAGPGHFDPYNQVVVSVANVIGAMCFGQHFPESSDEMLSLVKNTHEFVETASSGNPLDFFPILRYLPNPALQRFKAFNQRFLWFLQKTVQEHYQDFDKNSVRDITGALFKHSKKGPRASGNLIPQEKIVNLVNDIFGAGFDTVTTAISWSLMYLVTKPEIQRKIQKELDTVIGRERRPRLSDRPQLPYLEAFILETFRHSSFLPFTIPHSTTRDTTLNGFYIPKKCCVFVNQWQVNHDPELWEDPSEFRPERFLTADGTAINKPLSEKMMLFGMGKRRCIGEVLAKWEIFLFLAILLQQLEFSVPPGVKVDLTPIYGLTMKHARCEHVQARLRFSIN

[18] = molecular target: Cytochrome P450 2C9 (Homo sapiens, UniProt P11712); test: Inhibition of CYP2C9 (unknown origin); format: ADME
[19] = molecular target: T5, Cytochrome P450 2C8 (Homo sapiens, UniProt P10632); test: Inhibition of CYP2C8 (unknown origin); format: ADME
T5 sequence (P10632 whole entry): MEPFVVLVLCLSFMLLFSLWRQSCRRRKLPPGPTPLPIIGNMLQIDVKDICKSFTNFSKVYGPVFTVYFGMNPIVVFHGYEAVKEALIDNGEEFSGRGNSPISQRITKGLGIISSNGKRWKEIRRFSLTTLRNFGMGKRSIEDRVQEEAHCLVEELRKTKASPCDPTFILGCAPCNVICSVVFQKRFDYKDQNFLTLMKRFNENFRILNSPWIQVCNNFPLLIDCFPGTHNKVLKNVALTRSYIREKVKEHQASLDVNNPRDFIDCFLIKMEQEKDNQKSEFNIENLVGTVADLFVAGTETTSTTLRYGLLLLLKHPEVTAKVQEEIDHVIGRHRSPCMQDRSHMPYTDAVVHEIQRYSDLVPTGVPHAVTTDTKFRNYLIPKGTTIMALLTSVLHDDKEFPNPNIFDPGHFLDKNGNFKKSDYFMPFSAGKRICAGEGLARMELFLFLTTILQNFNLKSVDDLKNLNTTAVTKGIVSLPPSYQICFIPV

[20] = molecular target: Cytochrome P450 2D6 (Homo sapiens, UniProt P10635); test: Inhibition of CYP2D6 (unknown origin); format: ADME
[21] = Protein binding in rat plasma; format: ADME, cell-free; details: read-out: PPB (converted)
[22] = molecular target: Cytochrome P450 2C19 (Homo sapiens, UniProt P33261); test: Inhibition of CYP2C19 (unknown origin); format: ADME
[23] = Tmax in CD-1 mouse at 1 mg/kg, po; format: ADME, organism-based; details: in vivo
[24] = Oral bioavailability in CD-1 mouse at 1 mg/kg; format: ADME, organism-based; details: in vivo
[25] = Protein binding in mouse plasma; format: ADME, cell-free; details: read-out: PPB (converted)
[26] = Protein binding in human plasma; format: ADME, cell-free; details: read-out: PPB (converted)
[27] = molecular target: Cytochrome P450 3A4 (Homo sapiens, UniProt P08684); test: Inhibition of CYP3A4 (unknown origin); format: ADME
[28] = Unbound clearance in CD-1 mouse at 0.5 mg/kg, iv; format: ADME, organism-based; details: in vivo
[29] = Volume of distribution at steady state in CD-1 mouse at 0.5 mg/kg, iv; format: ADME, organism-based; details: in vivo, read-out: Vdss

T3 sequence (P51531 whole entry): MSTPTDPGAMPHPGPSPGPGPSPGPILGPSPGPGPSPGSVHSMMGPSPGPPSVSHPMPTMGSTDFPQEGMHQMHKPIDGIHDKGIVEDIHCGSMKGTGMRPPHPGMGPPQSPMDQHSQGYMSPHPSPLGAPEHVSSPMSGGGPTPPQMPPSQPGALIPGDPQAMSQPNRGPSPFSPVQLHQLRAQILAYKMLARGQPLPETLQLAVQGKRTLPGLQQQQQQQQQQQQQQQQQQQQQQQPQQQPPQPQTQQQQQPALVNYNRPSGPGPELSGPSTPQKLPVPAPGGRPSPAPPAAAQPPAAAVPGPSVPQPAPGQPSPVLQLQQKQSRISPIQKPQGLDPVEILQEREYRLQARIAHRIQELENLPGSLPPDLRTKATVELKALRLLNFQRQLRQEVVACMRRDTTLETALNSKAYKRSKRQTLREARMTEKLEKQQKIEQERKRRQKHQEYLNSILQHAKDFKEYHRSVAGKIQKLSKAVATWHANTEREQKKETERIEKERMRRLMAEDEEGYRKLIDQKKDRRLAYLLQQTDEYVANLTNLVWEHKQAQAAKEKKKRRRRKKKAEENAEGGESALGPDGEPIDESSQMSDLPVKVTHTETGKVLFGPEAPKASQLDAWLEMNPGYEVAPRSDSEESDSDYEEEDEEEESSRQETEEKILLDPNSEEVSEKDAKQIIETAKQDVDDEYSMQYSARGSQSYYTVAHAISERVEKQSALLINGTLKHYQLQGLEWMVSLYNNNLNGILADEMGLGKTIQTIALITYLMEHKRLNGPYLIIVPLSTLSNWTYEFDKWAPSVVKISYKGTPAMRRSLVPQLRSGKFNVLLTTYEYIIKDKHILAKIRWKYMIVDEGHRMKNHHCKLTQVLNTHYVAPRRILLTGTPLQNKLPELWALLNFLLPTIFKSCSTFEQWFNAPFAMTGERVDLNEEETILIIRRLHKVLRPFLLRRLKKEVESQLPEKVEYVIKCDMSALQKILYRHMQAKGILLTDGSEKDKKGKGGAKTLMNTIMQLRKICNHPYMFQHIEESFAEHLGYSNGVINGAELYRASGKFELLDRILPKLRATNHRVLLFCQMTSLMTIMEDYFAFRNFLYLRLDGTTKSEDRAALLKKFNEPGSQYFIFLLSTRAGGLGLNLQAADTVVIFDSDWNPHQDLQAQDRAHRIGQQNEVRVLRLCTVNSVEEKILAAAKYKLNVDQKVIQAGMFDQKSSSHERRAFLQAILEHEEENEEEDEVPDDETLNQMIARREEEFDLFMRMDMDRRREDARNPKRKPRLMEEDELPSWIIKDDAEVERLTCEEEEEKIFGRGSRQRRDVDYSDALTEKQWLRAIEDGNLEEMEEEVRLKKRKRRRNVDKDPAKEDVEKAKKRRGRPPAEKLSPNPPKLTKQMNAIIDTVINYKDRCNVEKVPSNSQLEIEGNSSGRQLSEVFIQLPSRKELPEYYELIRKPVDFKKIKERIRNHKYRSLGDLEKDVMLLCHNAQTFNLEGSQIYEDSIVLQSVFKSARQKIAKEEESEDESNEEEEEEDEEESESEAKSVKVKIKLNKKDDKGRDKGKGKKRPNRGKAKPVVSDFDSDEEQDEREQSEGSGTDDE
T1 sequence (P51532 whole entry, the tested form may be a part): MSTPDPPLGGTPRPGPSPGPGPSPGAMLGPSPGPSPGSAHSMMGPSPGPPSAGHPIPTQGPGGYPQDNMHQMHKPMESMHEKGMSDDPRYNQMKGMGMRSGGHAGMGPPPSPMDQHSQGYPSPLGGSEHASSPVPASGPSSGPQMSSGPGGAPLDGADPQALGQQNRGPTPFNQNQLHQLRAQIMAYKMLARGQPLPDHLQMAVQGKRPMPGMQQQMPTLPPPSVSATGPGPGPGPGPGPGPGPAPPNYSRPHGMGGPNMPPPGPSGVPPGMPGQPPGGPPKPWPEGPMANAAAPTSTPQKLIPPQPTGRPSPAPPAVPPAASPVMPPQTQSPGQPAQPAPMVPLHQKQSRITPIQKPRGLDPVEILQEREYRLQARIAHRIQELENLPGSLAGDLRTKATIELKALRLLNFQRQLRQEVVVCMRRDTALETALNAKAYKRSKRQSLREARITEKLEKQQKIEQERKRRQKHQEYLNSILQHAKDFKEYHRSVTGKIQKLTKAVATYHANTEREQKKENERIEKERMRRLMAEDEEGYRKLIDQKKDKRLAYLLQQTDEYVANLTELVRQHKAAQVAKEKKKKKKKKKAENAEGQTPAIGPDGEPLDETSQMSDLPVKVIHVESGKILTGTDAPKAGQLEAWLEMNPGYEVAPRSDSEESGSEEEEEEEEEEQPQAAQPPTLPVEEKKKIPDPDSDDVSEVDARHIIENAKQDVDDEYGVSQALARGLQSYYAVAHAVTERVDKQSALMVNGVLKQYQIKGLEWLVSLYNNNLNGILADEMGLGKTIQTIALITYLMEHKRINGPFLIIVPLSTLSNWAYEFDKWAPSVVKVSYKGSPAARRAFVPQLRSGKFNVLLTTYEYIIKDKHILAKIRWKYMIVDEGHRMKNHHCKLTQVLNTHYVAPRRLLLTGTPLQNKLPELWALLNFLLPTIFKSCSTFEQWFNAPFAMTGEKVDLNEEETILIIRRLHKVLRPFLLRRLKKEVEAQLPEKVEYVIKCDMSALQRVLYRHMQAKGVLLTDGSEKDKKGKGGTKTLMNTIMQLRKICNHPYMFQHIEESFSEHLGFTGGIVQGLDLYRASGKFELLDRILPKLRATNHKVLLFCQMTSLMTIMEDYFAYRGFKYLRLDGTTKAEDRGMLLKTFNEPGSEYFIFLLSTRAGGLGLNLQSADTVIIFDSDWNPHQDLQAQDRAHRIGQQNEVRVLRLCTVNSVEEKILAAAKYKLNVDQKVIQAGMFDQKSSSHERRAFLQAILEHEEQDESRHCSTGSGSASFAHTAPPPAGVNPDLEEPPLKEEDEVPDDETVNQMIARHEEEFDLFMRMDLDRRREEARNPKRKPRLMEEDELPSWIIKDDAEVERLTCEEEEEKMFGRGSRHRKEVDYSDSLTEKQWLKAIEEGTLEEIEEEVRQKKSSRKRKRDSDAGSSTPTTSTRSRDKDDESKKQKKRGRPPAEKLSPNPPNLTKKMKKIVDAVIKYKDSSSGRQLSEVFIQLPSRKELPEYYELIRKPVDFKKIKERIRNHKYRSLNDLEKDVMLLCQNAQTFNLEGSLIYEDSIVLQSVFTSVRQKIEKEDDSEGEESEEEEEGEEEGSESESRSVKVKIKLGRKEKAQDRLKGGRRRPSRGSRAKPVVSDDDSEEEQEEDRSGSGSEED
T2 sequence (Q86U86 whole entry): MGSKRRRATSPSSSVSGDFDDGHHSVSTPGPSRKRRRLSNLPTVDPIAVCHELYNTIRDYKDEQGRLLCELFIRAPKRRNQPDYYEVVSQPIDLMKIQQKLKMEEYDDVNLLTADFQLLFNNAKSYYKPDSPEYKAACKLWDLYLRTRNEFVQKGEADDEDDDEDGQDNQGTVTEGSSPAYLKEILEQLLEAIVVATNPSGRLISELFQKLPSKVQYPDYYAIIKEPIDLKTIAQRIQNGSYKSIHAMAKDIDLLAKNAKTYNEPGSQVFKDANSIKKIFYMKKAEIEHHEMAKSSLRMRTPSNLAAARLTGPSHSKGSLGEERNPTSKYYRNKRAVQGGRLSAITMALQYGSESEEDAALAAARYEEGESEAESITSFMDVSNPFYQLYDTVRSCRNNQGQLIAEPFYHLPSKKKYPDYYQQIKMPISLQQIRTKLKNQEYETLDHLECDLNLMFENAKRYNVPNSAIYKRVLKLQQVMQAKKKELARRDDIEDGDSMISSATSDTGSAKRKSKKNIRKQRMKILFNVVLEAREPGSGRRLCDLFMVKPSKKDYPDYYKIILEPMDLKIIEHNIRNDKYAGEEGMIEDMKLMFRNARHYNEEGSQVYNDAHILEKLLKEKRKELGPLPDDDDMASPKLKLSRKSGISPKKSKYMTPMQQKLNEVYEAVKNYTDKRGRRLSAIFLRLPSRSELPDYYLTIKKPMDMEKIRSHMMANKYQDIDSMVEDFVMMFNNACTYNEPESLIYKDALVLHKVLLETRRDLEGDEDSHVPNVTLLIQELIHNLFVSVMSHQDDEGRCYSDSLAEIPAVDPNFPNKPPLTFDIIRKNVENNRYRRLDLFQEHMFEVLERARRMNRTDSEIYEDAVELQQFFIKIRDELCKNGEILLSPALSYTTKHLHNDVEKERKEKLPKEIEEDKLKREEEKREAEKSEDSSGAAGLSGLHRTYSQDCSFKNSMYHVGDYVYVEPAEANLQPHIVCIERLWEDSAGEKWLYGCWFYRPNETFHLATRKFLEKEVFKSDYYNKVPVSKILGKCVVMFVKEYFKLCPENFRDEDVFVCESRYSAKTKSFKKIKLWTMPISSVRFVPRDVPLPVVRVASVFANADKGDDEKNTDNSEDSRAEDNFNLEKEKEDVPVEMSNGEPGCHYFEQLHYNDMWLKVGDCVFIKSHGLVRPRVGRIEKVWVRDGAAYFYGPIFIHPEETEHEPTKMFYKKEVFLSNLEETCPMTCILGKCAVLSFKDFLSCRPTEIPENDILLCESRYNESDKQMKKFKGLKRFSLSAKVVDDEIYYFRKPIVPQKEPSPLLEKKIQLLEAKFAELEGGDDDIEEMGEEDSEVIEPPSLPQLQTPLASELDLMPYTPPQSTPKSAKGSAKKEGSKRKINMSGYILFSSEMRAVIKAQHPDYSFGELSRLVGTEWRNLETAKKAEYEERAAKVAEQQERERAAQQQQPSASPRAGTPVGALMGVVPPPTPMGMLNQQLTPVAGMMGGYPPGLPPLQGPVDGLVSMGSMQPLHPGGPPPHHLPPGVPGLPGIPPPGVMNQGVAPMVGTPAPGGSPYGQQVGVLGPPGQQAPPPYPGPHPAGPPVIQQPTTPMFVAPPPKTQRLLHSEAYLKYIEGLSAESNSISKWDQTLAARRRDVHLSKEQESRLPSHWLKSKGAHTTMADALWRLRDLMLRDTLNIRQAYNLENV

## Nc1nnc2c([nH]c3ccccc32)c1-c1ccccc1
[1]
  Kd: 0.51 µM
[2]
  IC50: 3.1 µM
[3]
  IC50: 5.3 µM
[4]
  IC50: 4.3 µM
[5]
  Kd: 3.5 µM
[6]
  IC50: > 100 µM
[7]
  Kd: 0.17 µM
[8]
  Kd: 0.58 µM
[9]
  Kd: 0.34 µM

## Nc1nnc(-c2ccccc2O)cc1-c1ccccc1
[10]
  logD: 3.3
[6]
  IC50: 27 µM
[11]
  solubility kinetic: 11 µM (≈ 2.9 µg/mL)

## Nc1nnc(-c2ccccc2)cc1-c1ccccc1
[1]
  Kd: 10 µM
[3]
  IC50: 57.1 µM
[6]
  IC50: > 100 µM
[7]
  Kd: 5.7 µM
[8]
  Kd: 27 µM
[9]
  Kd: 4.4 µM

## CC(=O)N1CCN(c2cc(-c3ccccc3O)nnc2N)C[C@H]1C
[12]
  fraction unbound: 0.31
[13]
  Cmax: 1000 nM
[14]
  Vduss: 3.2 L/kg
[10]
  logD: 2
[15]
  half-life: 66 min
[16]
  clearance: 16 mL/min/kg
[17]
  IC50: > 10 µM
[18]
  IC50: > 10 µM
[19]
  IC50: > 10 µM
[20]
  IC50: > 10 µM
[21]
  fraction unbound: 0.41
[6]
  IC50: 34 µM
[22]
  IC50: > 10 µM
[23]
  Tmax: 30 min
[24]
  bioavailability: 59%
[11]
  solubility kinetic: 120 µM (≈ 39.3 µg/mL)
[25]
  fraction unbound: 0.31
[26]
  fraction unbound: 0.24
[27]
  IC50: > 10 µM
[28]
  CL free: 52 mL/min/kg
[29]
  Vd: 1 L/kg

— ChEMBL document CHEMBL5137085, “GNE-064: A Potent, Selective, and Orally Bioavailable Chemical Probe for the Bromodomains of SMARCA2 and SMARCA4 and the Fifth Bromodomain of PBRM1” (J Med Chem, 2022)
